In PMC9000482, “Inhibition of Aldose Reductase by Ginsenoside Derivatives via a Specific Structure Activity Relationship with Kinetics Mechanism and Molecular Docking Study” (Molecules, 2022):
Like-named read-outs stand apart in the source and are kept apart here. Marks after values point to notes of the source that are not given here.

What was measured:
[1] = biological target: T1, human recombinant aldose reductase (HRAR) (Homo sapiens, UniProt P15121); test: HRAR inhibition assay (DL-glyceraldehyde substrate); format: biochemical; conditions: for HRAR inhibitory activity (in words): at the concentrations tested
T1 construct: purchased Wako Chemicals (Osaka, Japan)
Protocol: HRAR inhibition was studied according to Nishimura et al.. AR action was studied by measuring the reduction in NADPH absorption at 340 nm over a period of 1 min on a UV/visible spectrophotometer (Ultrospec®2100pro, Biochrom, Holliston, MA, USA). For HRAR inhibition, the HRAR enzyme (0.4 units), was used in all enzyme inhibition evaluations. […] The inhibition percentage (%) was measured as designated in the RLAR assay. The DA sample/min value characterizes the decrease in absorbance for 1 min with the test samples and substrate. The ability of each sample to inhibit HRAR was observed as an IC50 value (µM) and measured from the log-dose inhibition curve.

[2] = biological target: T2, rat lens aldose reductase (RLAR) (Rattus norvegicus, UniProt P07943); test: RLAR inhibitory activity assay (rat lens homogenate, DL-glyceraldehyde substrate); format: biochemical; conditions: for RLAR inhibitory activity (in words): at the concentrations tested
T2 construct: from tissue; host or cells: lens of Sprague-Dawley rats (supernatant of homogenate)
Protocol: A rat lens homogenate was prepared with minor modifications according to the method reported by Hayman et al.. Briefly, the lenses were removed from the eyes of Sprague-Dawley rats weighing 250–280 g. They were homogenized in sodium phosphate buffer (pH 6.2) that was prepared with dibasic sodium phosphate (Na2HPO4∙H2O, 0.66 g) and monobasic sodium phosphate (NaH2PO4∙H2O, 1.27 g) in 100 mL of double-distilled H2O. The homogenate was clarified by centrifugation at 10,000 rpm at 4 °C for 20 min and the resultant supernatant was frozen until use. A crude AR homogenate with a specific activity of 6.5 U/mg was used in all enzyme inhibition evaluations. The reaction solution consisted of 620 µL of 100 mM sodium phosphate buffer (pH 6.2), 90 µL of AR homogenate, 90 µL of 1.6 mM NADPH, and 9 µL of sample, while the substrate included 90 µL of 50 mM DL-glyceraldehyde. […] AR activity was determined by measuring the decrease in NADPH absorption at 340 nm over a 4 min period on an Ultrospec®2100pro UV/Visible spectrophotometer. SWIFT II Applications software (Amersham Biosciences, NJ, USA) was used for all data analyses. The inhibition percentage (%) was calculated as follows in Equation (1):[1 − (∆Asample/min − ∆Ablank/min)/(∆Acontrol/min − ∆Ablank/min)] × 100(1) in which ∆Asample/min represents the test sample and substrate’s reduction in absorbance over 4 min, and ∆A control/min represents the same reduction in absorbance, but with 100% DMSO (dimethyl sulfoxide) rather than the test sample.

[3] = test system: sorbitol accumulation in rat lens; test: Lens culture and intracellular sorbitol measurement (ex vivo); format: cell-based, Sprague-Dawley rats; conditions: 25 mM glucose, 6 days, sample 5 μg/mL, mean ± SD (n = 3); for inhibition at 5 µg/mL: Rattus norvegicus, 144 h
[4] = biological target: T2, rat lens aldose reductase (RLAR); test: Enzyme kinetics of RLAR inhibition (Lineweaver-Burk and Dixon plots); format: biochemical
Protocol: Enzyme inhibition with different concentrations ([…]) was assessed by monitoring the effects of different concentrations of the substrate. The following concentrations of test ginsenosides were used in the RLAR kinetics analysis: 0, 2, 10, and 50 µM for protopanaxadiol; 0, 0.5, 2.5, and 10 µM for (20S) ginsenoside Rg3; 0, 0.5, 2.5, and 10 µM for (20R) ginsenoside Rg3; 0, 0.1, 0.5, and 2.5 µM for ginsenoside Rh2; 0, 2, 10, and 50 µM for protopanaxatriol; 0, 0.8, 4, and 20 µM for ginsenoside Rf; 0, 0.8, 4, and 20 µM for (20S) ginsenoside Rg2, and 0, 0.5, 2.5, and 10 µM for ginsenoside Rh1. Using Lineweaver-Burk double reciprocal plots, the inhibition type was determined using various concentrations of DL-glyceraldehyde (5, 10, and 20 mM) for HRAR as a substrate in the presence of different concentrations of the active test ginsenosides. The concentrations of test ginsenosides in the HRAR kinetics analysis were as follows: 0, 0.1, 0.5, and 2.5 µM for protopanaxadiol; 0, 0.5, 2, and 10 µM for (20S) ginsenoside Rg3; 0, 1, 5, and 20 µM for (20R) ginsenoside Rg3; 0, 0.5, 2.5, and 10 µM for ginsenoside Rh2; 0, 0.1, 0.5, and 2.5 µM for compound K; 0, 1, 5, and 10 µM for protopanaxatriol; 0, 0.5, 4, and 20 µM for (20R) ginsenoside Rg2, and 0, 0.2, 2, and 5 µM for ginsenoside Rh1. The Dixon plot is a graphical method [1/enzyme velocity (1/V)] against inhibitor concentration [I] used to determine the type of enzyme inhibition; it was used to identify the dissociation or inhibition constant (Ki) for the enzyme-inhibitor complex. Dixon plots (single reciprocal plots) for RLAR and HRAR inhibition were obtained in the presence of 100, 50, and 10 mM RLAR, and 20, 10, and 5 mM HRAR DL-glyceraldehyde substrate. Thus, the type of enzyme inhibition was determined by interpreting the Lineweaver-Burk plots, and the inhibition constants (Ki) were determined by interpreting the Dixon plots.

[5] = substrate DL-glyceraldehyde, mean ± S.E.M. of triplicate experiments, read-out: HRAR IC50
[6] = rat lens homogenate, substrate DL-glyceraldehyde, mean ± S.E.M. of triplicate experiments, read-out: RLAR IC50

| SMILES | IC50 [1, 5] | IC50 [2, 6] | other results |
| --- | --- | --- | --- |
| CC(C)=CCC[C@](C)(O[C@@H]1O[C@H](CO)[C@@H](O)[C@H](O)[C@H]1O)[C@H]1CC[C@]2(C)[C@@H]1[C@H](O)C[C@@H]1[C@@]3(C)CC[C@H](O)C(C)(C)[C@@H]3[C@@H](O[C@@H]3O[C@H](CO)[C@@H](O)[C@H](O)[C@H]3O[C@@H]3O[C@@H](C)[C@H](O)[C@@H](O)[C@H]3O)C[C@]12C [Ginsenoside Re] | 43.4 ± 3.11 µM | 81.3 ± 2.18 µM |  |
| O=C(O)Cn1c(=O)n(Cc2ccc(Br)cc2F)c(=O)c2ccc(Cl)cc21 [Zenaresta, Zenarestat, reference compound] |  |  | IC50 [1]: 0.69 ± 0.11 µM |
| CC(C)=CCC[C@](C)(O[C@@H]1O[C@H](CO[C@@H]2O[C@@H](CO)[C@H](O)[C@H]2O)[C@@H](O)[C@H](O)[C@H]1O)[C@H]1CC[C@]2(C)[C@@H]1[C@H](O)C[C@@H]1[C@@]3(C)CC[C@H](O[C@@H]4O[C@H](CO)[C@@H](O)[C@H](O)[C@H]4O[C@@H]4O[C@H](CO)[C@@H](O)[C@H](O)[C@H]4O)C(C)(C)[C@@H]3CC[C@]12C [Ginsenoside Rc] | 56.6 ± 2.19 µM | > 200 µM | RLAR inhibitory activity (in words) [2]: inactive |
| CC(C)=CCC[C@](C)(O)[C@H]1CC[C@]2(C)[C@@H]1[C@H](O)C[C@@H]1[C@@]3(C)CC[C@H](O)C(C)(C)[C@@H]3[C@@H](O[C@@H]3O[C@H](CO)[C@@H](O)[C@H](O)[C@H]3O[C@@H]3O[C@H](CO)[C@@H](O)[C@H](O)[C@H]3O)C[C@]12C [Ginsenoside Rf] | 19.5 ± 1.55 µM | 11.3 ± 1.49 µM | Sorbitol Content (mg)/Lens Wet Weight (g) [3]: 0.28 ± 0.01 ^a mg/g; inhibition at 5 µg/mL [3]: 83.7 ± 4.88%; RLAR Kiu (binding constant of inhibitor with enzyme-substrate complex) ([4]; Dixon plots): 18.60 µM; Ki ([4]; Dixon plots, read-out: RLAR Kic (binding constant of inhibitor with free enzyme)): 11.2 µM; RLAR Mode of Inhibition ([4]; Lineweaver-Burk plot): Mixed type |
| CC(C)=CCC[C@](C)(O[C@@H]1O[C@H](CO[C@@H]2O[C@@H](CO)[C@H](O)[C@H]2O[C@@H]2OC[C@@H](O)[C@H](O)[C@H]2O)[C@@H](O)[C@H](O)[C@H]1O)[C@H]1CC[C@]2(C)[C@@H]1[C@H](O)C[C@@H]1[C@@]3(C)CC[C@H](O[C@@H]4O[C@H](CO)[C@@H](O)[C@H](O)[C@H]4O[C@@H]4O[C@H](CO)[C@@H](O)[C@H](O)[C@H]4O)C(C)(C)[C@@H]3CC[C@]12C [Ginsenoside Ra2] | 82.43 ± 0.44 µM | 178 ± 7.39 µM |  |
| CC(C)=CCC[C@](C)(O[C@@H]1O[C@H](CO)[C@@H](O)[C@H](O)[C@H]1O)[C@H]1CC[C@]2(C)[C@@H]1[C@H](O)C[C@@H]1[C@@]3(C)CC[C@H](O)C(C)(C)[C@@H]3[C@@H](O[C@@H]3O[C@H](CO)[C@@H](O)[C@H](O)[C@H]3O)C[C@]12C [Ginsenoside Rg1] | 27.6 ± 2.12 µM | 49.5 ± 1.88 µM |  |
| O=c1c(O)c(-c2ccc(O)c(O)c2)oc2cc(O)cc(O)c12 [Quercetin, reference compound] |  |  | Sorbitol Content (mg)/Lens Wet Weight (g) [3]: 0.22 ± 0.01 ^a mg/g; inhibition at 5 µg/mL [3]: 87.2 ± 3.91% |
| CC(C)=CCC[C@](C)(O[C@@H]1O[C@H](CO[C@@H]2OC[C@H](O)[C@H](O)[C@H]2O)[C@@H](O)[C@H](O)[C@H]1O)[C@H]1CC[C@]2(C)[C@@H]1[C@H](O)C[C@@H]1[C@@]3(C)CC[C@H](O[C@@H]4O[C@H](CO)[C@@H](O)[C@H](O)[C@H]4O[C@@H]4O[C@H](CO)[C@@H](O)[C@H](O)[C@H]4O)C(C)(C)[C@@H]3CC[C@]12C [Ginsenoside Rb2] | > 100 µM | 121 ± 3.43 µM | HRAR inhibitory activity (in words) [1]: inactive |
| CC(C)=CC/C=C(\C)[C@H]1CC[C@]2(C)[C@@H]1[C@H](O)C[C@@H]1[C@@]3(C)CC[C@H](O[C@@H]4O[C@H](CO)[C@@H](O)[C@H](O)[C@H]4O[C@@H]4O[C@H](CO)[C@@H](O)[C@H](O)[C@H]4O)C(C)(C)[C@@H]3CC[C@]12C [Ginsenoside Rg5] |  |  | IC50 [1]: 38.6 ± 2.91 µM; IC50 [2]: 54.5 ± 1.22 µM |
| CC(C)=CCC[C@](C)(O[C@@H]1O[C@H](CO)[C@@H](O)[C@H](O)[C@H]1O)[C@H]1CC[C@]2(C)[C@@H]1[C@H](O)C[C@@H]1[C@@]3(C)CC[C@H](O[C@@H]4O[C@H](CO)[C@@H](O)[C@H](O)[C@H]4O[C@@H]4O[C@H](CO)[C@@H](O)[C@H](O)[C@H]4O)C(C)(C)[C@@H]3CC[C@]12C [Ginsenoside Rd] | 37.5 ± 1.33 µM | 89.6 ± 2.99 µM |  |
| CC(C)=CCC[C@](C)(O[C@@H]1O[C@H](CO[C@@H]2OC[C@H](O[C@@H]3OC[C@@H](O)[C@H](O)[C@H]3O)[C@H](O)[C@H]2O)[C@@H](O)[C@H](O)[C@H]1O)[C@H]1CC[C@]2(C)[C@@H]1[C@H](O)C[C@@H]1[C@@]3(C)CC[C@H](O[C@@H]4O[C@H](CO)[C@@H](O)[C@H](O)[C@H]4O[C@@H]4O[C@H](CO)[C@@H](O)[C@H](O)[C@H]4O)C(C)(C)[C@@H]3CC[C@]12C [Ginsenoside Ra1] | 75.6 ± 4.33 µM | > 200 µM | RLAR inhibitory activity (in words) [2]: inactive |
| CC(C)=CCC[C@](C)(O[C@@H]1O[C@H](CO[C@@H]2O[C@H](CO)[C@@H](O)[C@H](O)[C@H]2O)[C@@H](O)[C@H](O)[C@H]1O)[C@H]1CC[C@]2(C)[C@@H]1[C@H](O)C[C@@H]1[C@@]3(C)CC[C@H](O[C@@H]4O[C@H](CO)[C@@H](O)[C@H](O)[C@H]4O[C@@H]4O[C@H](CO)[C@@H](O)[C@H](O)[C@H]4O)C(C)(C)[C@@H]3CC[C@]12C [Ginsenoside Rb1] | 93.3 ± 5.76 µM | 103 ± 7.45 µM |  |
| CC(=O)OC[C@H]1O[C@@H](O[C@H]2[C@H](O[C@H]3CC[C@@]4(C)C(CC[C@]5(C)C4C[C@@H](O)[C@@H]4C([C@](C)(CCC=C(C)C)O[C@@H]6O[C@H](CO[C@@H]7O[C@@H](CO)[C@H](O)[C@H]7O)[C@@H](O)[C@H](O)[C@H]6O)CC[C@]45C)C3(C)C)O[C@H](CO)[C@@H](O)[C@@H]2O)[C@H](O)[C@@H](O)[C@@H]1O (stereo partly drawn) [Ginsenoside Rs2] | > 100 µM | 149 ± 4.22 µM | HRAR inhibitory activity (in words) [1]: inactive |
| CC(C)=CCC[C@](C)(O[C@@H]1O[C@H](CO[C@@H]2OC[C@@H](O)[C@H](O)[C@H]2O)[C@@H](O)[C@H](O)[C@H]1O)[C@H]1CC[C@]2(C)[C@@H]1[C@H](O)C[C@@H]1[C@@]3(C)CC[C@H](O[C@@H]4O[C@H](CO)[C@@H](O)[C@H](O)[C@H]4O[C@@H]4O[C@H](CO)[C@@H](O)[C@H](O)[C@H]4O)C(C)(C)[C@@H]3CC[C@]12C [Ginsenoside Rb3] | 79 ± 4.55 µM | 117 ± 6.89 µM |  |
| CC(=O)OC[C@H]1O[C@@H](O[C@H]2[C@H](O[C@H]3CC[C@@]4(C)C(CC[C@]5(C)C4C[C@@H](O)[C@@H]4C([C@](C)(CCC=C(C)C)O[C@@H]6O[C@H](CO[C@@H]7OC[C@H](O)[C@H](O)[C@H]7O)[C@@H](O)[C@H](O)[C@H]6O)CC[C@]45C)C3(C)C)O[C@H](CO)[C@@H](O)[C@@H]2O)[C@H](O)[C@@H](O)[C@@H]1O (stereo partly drawn) [Ginsenoside Rs1] | > 100 µM | 143 ± 3.77 µM | HRAR inhibitory activity (in words) [1]: inactive |
